Reference: the supplement of paper PMC10307832

Tests used:
Assay in all cases: relative viability (nuclei count vs DMSO), 5 days (fraction); higher = more cells survive
Erlotinib + Palbociclib = compound: C#Cc1cccc(Nc2ncnc3cc(OCCOC)c(OCCOC)cc23)c1 [Erlotinib] + CC(=O)c1c(C)c2cnc(Nc3ccc(N4CCNCC4)cn3)nc2n(C2CCCC2)c1=O [Palbociclib] (partner 0.5 µM)
How it was run: (§1)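 One day after seeding in 1536-well plates, lung cancer cell lines were dosed by pin tool. Dosing was either single-drug or a fixed anchor-drug dose plus five library-drug doses (not always all listed) in √10 steps. After 5 days, nuclei were stained in one fix-and-stain step and counted on 4× images, and relative viability is the nuclei count of treated wells over that of vehicle wells, given as the median of duplicate plates.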

Erlotinib + Navitoclax = compound: C#Cc1cccc(Nc2ncnc3cc(OCCOC)c(OCCOC)cc23)c1 [Erlotinib] + CC1(C)CCC(c2ccc(Cl)cc2)=C(CN2CCN(c3ccc(C(=O)NS(=O)(=O)c4ccc(N[C@H](CCN5CCOCC5)CSc5ccccc5)c(S(=O)(=O)C(F)(F)F)c4)cc3)CC2)C1 [Navitoclax] (partner 0.5 µM)
How it was run: as §1

AT9283 + Palbociclib = compound: O=C(Nc1c[nH]nc1-c1nc2ccc(CN3CCOCC3)cc2[nH]1)NC1CC1 [AT9283] + CC(=O)c1c(C)c2cnc(Nc3ccc(N4CCNCC4)cn3)nc2n(C2CCCC2)c1=O [Palbociclib] (partner 0.5 µM)
How it was run: as §1

AT9283 + Linsitinib = compound: O=C(Nc1c[nH]nc1-c1nc2ccc(CN3CCOCC3)cc2[nH]1)NC1CC1 [AT9283] + C[C@]1(O)C[C@@H](c2nc(-c3ccc4ccc(-c5ccccc5)nc4c3)c3c(N)nccn32)C1 [Linsitinib] (partner 1 µM)
How it was run: as §1

AT9283 + Phenformin = compound: O=C(Nc1c[nH]nc1-c1nc2ccc(CN3CCOCC3)cc2[nH]1)NC1CC1 [AT9283] + N=C(N)NC(=N)NCCc1ccccc1 [Phenformin] (partner 250 µM)
How it was run: as §1

Cell Line | relative viability (Erlotinib + Palbociclib; first compound 0.02 µM) | relative viability (Erlotinib + Palbociclib; first compound 0.2 µM) | relative viability (Erlotinib + Palbociclib; first compound 0.6325 µM) | relative viability (Erlotinib + Palbociclib; first compound 2 µM) | relative viability (Erlotinib + Navitoclax; first compound 0.02 µM) | relative viability (Erlotinib + Navitoclax; first compound 0.2 µM) | relative viability (Erlotinib + Navitoclax; first compound 0.6325 µM) | relative viability (Erlotinib + Navitoclax; first compound 2 µM) | relative viability (AT9283 + Palbociclib; first compound 0.003 µM) | relative viability (AT9283 + Palbociclib; first compound 0.03 µM) | relative viability (AT9283 + Palbociclib; first compound 0.09487 µM) | relative viability (AT9283 + Palbociclib; first compound 0.3 µM) | relative viability (AT9283 + Linsitinib; first compound 0.003 µM) | relative viability (AT9283 + Linsitinib; first compound 0.03 µM) | relative viability (AT9283 + Linsitinib; first compound 0.09487 µM) | relative viability (AT9283 + Linsitinib; first compound 0.3 µM) | relative viability (AT9283 + Phenformin; first compound 0.003 µM) | relative viability (AT9283 + Phenformin; first compound 0.03 µM) | relative viability (AT9283 + Phenformin; first compound 0.09487 µM) | relative viability (AT9283 + Phenformin; first compound 0.3 µM)
HCC-78 | 0.482 | 0.432 | 0.458 | 0.459 | 0.731 | 0.503 | 0.744 | 0.621 | 0.473 | 0.476 | 0.396 | 0.347 | 0.475 | 0.41 | 0.172 | 0.185 | 0.611 | 0.511 | 0.333 | 0.26
HCC-366 | 0.389 | 0.358 | 0.544 | 0.312 | 1.03 | 1.02 | 1.02 | 1.01 | 0.373 | 0.309 | 0.157 | 0.101 | 0.71 | 0.319 | 0.0197 | 0.0206 | 0.609 | 0.657 | 0.0853 | 0.0845
HCC-827 | 0.191 | 0.146 | 0.135 | 0.154 | 0.465 | 0.167 | 0.162 | 0.172 | 0.478 | 0.428 | 0.272 | 0.174 | 0.995 | 0.843 | 0.463 | 0.371 | 0.399 | 0.352 | 0.356 | 0.196
HOP-62 | 0.544 | 0.517 | 0.453 | 0.41 | 1.08 |  | 1.19 | 1.05 | 0.468 | 0.405 | 0.188 | 0.197 | 0.927 | 0.721 | 0.178 | 0.173 | 0.694 | 0.572 | 0.418 | 0.25
IA-LM |  |  |  |  | 0.847 |  | 1.01 | 0.802 |  |  |  |  | 0.626 | 0.432 | 0.311 | 0.102 |  |  |  | 
LC-2-ad | 0.527 | 0.491 | 0.472 | 0.411 | 0.488 | 0.472 | 0.397 | 0.229 | 0.458 | 0.415 | 0.29 | 0.229 | 0.847 | 0.257 | 0.116 | 0.112 | 0.449 | 0.363 | 0.224 | 0.193
LCLC-97TM1 | 0.234 | 0.243 | 0.256 | 0.194 | 0.39 |  | 0.464 | 0.391 | 0.199 | 0.201 | 0.106 | 0.0962 | 0.184 | 0.156 | 0.107 | 0.0936 | 0.445 | 0.282 | 0.152 | 0.137
LCLC-103H | 0.503 | 0.429 | 0.457 | 0.467 |  |  |  |  | 0.362 | 0.494 | 0.423 | 0.371 | 0.952 | 1.04 | 1.07 | 0.419 | 0.295 | 0.356 | 0.331 | 0.205
NCI-H358 | 0.132 | 0.146 | 0.109 | 0.108 |  |  |  |  | 0.191 | 0.0774 | 0.0806 | 0.0739 | 0.447 | 0.142 | 0.12 | 0.17 | 0.309 | 0.1 | 0.0619 | 0.0785
NCI-H522 | 0.908 | 0.969 | 0.883 | 0.824 |  |  |  |  | 0.945 | 0.731 | 0.577 | 0.585 |  |  |  |  | 0.555 | 0.481 | 0.44 | 0.377
NCI-H596 |  |  |  |  | 1.02 | 0.751 | 1.06 | 0.813 |  |  |  |  | 1.06 | 1.01 | 0.912 | 0.564 | 0.743 | 0.82 | 0.608 | 0.564
NCI-H650 | 0.317 | 0.341 | 0.335 | 0.35 |  |  |  |  | 0.314 | 0.334 | 0.209 | 0.122 | 0.7 | 0.601 | 0.262 | 0.164 | 0.366 | 0.436 | 0.223 | 0.165
NCI-H661 | 0.418 | 0.43 | 0.383 | 0.355 |  |  |  |  | 0.44 | 0.368 | 0.329 | 0.368 | 0.513 | 0.474 | 0.252 | 0.295 | 0.276 | 0.269 | 0.252 | 0.236
NCI-H1299 |  |  |  |  | 1.11 | 1.08 | 1.06 | 0.981 |  |  |  |  | 0.888 | 0.705 | 0.402 | 0.256 |  |  |  | 
NCI-H1563 |  |  |  |  |  |  |  |  |  |  |  |  | 1.26 | 0.892 | 0.832 | 0.757 | 0.638 | 0.663 | 0.605 | 0.556
NCI-H1623 |  |  |  |  |  |  |  |  |  |  |  |  |  |  |  |  | 0.597 | 0.578 | 0.55 | 0.336
NCI-H1648 | 0.337 | 0.277 | 0.293 | 0.272 |  |  |  |  | 0.247 | 0.262 | 0.242 | 0.297 |  |  |  |  |  |  |  | 
NCI-H1650 | 0.265 | 0.287 | 0.309 | 0.245 | 1.15 | 1.23 | 1.14 | 0.924 | 0.38 | 0.404 | 0.242 | 0.237 |  |  |  |  | 0.491 | 0.385 | 0.223 | 0.175
NCI-H1703 |  |  |  |  | 1.1 | 1.09 | 1.32 | 1.11 |  |  |  |  | 0.985 | 0.284 | 0.258 | 0.223 |  |  |  | 
NCI-H2170 | 0.374 | 0.36 | 0.379 | 0.282 | 0.513 | 0.377 | 0.451 | 0.216 | 0.446 | 0.37 | 0.198 | 0.148 |  |  |  |  | 0.433 | 0.375 | 0.177 | 0.14
NCI-H2342 | 0.469 | 0.439 | 0.457 | 0.591 |  |  |  |  | 0.505 | 0.535 | 0.502 | 0.449 |  |  |  |  | 0.592 | 0.423 | 0.534 | 0.341
SW 900 | 0.492 | 0.48 | 0.472 | 0.398 |  |  |  |  | 0.462 | 0.542 | 0.368 | 0.253 |  |  |  |  | 0.63 | 0.595 | 0.486 | 0.256
